Like-named read-outs stand apart in the source and are kept apart here.
What was measured:
[1] = cited from earlier work
[2] = DIO mice
Text: The objective of this study was to evaluate the effect of chronic administration of 4-hydroxyisoleucine (4-OH, compound 14a) and Rosiglitazone, administered alone or in combination, on food consumption and body weight gain of DIO-mice. Both parameters were monitored for 1 week prior to the commencement of treatment, then for the 28 days of treatment and for an additional 7 days post-treatment.
A total of 72 animals were used in the study. The animals were distributed into 6 groups (5 treated, 1 control group, all on high fat diet). Each group was composed of 12 animals. The mice were randomized according to body weight and basal glycemia values following a 5±0.5 hour fasting period.
For the four weeks of treatment, the test articles were dissolved in reverse osmosis water. 4-Hydroxyisoleucine was aliquoted and kept at 4° C. (administration to groups 2, 3, and 6), while Rosiglitazone was freshly prepared daily and kept at 4° C. between the AM and PM administration to groups 4, 5, and 6. Control animals received reverse osmosis water twice daily (group 1). Mice from groups 2 and 3 were treated twice daily with 4-OH at 50 and 100 mg/kg, respectively. Animals from groups 4 and 5 received 1.5 and 5 mg/kg of Rosiglitazone, respectively. […] All groups were treated by oral gavage. Treatment commenced on Day 0 and ended on Day 28 (FIGS. 17A and 17C).
Food consumption was measured and averaged on a weekly basis beginning one week before the start of treatment as shown in FIGS. 17B and 17D as week −1. Similarly, food consumption was monitored for one week after treatment was stopped and is shown as week 5 in FIGS. 17B and 17D. In FIG. 17B, the food consumption over time for various treatment groups is illustrated by the bar graph.

[3] = Body weight gain in C57BU6 mice shifted to a high fat diet, analogs and isomers, 3 days (Example 9); format: in vivo; details: C57BU6 mice on high fat diet, 100 mg/kg twice daily oral gavage
Method: C57BU6 mice were received at 6-7 weeks of age and fed a standard commercial chow for 1 week (acclimation period). The animals were randomized based on their body weight values, into control and treatment groups (n=6). Then, animals were shifted to a high fat diet (60% of calories from fat) and treated twice daily by oral gavage with 4-hydroxyisoleucine (4-OH, compound 14a) or different analogs and isomers of 4-OH at the dose of 100 mg per kg of body weight for 3 days. The control group (Control HFD) received vehicle (water) alone and a group was kept under standard chow (Control Lean). Body weight of the mice was recorded daily. Two different experiments were run and the effect on body weight gain of selected analogs and isomers according to the invention is presented in FIG. 22A (Experiment 1) and FIG. 22B (Experiment 2).

[4] = format: in vivo
Text: The objective of this study was to evaluate the effect of chronic administration of 4-hydroxyisoleucine (4-OH, compound 14a) on food consumption and body weight gain of DIO-mice. Both parameters were monitored for 1 week prior to the commencement of treatment, then for the 77 days of treatment and for an additional 12 days post-treatment.
C57BL/6 mice were received at 7-8 weeks of age and fed a high fat diet (60% of calories from fat) for several weeks. A total of 32 animals were used in the study. The animals were distributed into 4 groups (3 treated, 1 control group, all on high fat diet). Each group was composed of 8 animals. The mice were randomized according to body weight and basal glycemia values following a 5±0.5 hour fasting period.
The test agent was dissolved in reverse osmosis water. 4-Hydroxyisoleucine was aliquoted and kept at 4° C. Control animals received reverse osmosis water twice daily (group 1). Mice from groups 2, 3 and 4 were treated twice daily with 4-hydroxyisoleucine (4-OH, compound 14a) at 100, 50, and 25 mg/kg, respectively. All groups were treated by oral gavage. Treatment commenced on Day 0 and ended on Day 77. Food consumption was measured daily and averaged on a weekly basis beginning one week before the start of treatment as shown in FIG. 15B. Similarly, food consumption was monitored during the treatment period and for 12 days after treatment was stopped as shown in FIGS. 15A and 15B.

[5] = Reversal of weight gain in obese wistar rats on HFHS diet (Example 11); format: in vivo; details: 100 mg/kg twice daily oral
Text: The aim of this study was to evaluate the effect of chronic administration of 4-hydroxyisoleucine (4-OH, Compound 14a) on food consumption, tissue weight, and body weight gain of wistar obese rats.
A total of 30 animals were used in the study. The animals were acclimated for 1 week and fed standard chow. The animals were randomized into 3 groups of 10 animals each. Two groups were fed a high fat, high sucrose diet (HFHS), and 1 untreated control group was fed standard chow over a 28 day period. Animals were housed separately and food consumption was monitored daily.
In the following period of 28 days, the feeding regimen remained the same for the 3 groups; however, 1 group fed HFHS was treated with twice daily oral administration of 4-OH at 100 mg/kg per dose. For the 28 days of treatment, 4-OH was dissolved in reverse osmosis water, aliquoted, and kept at 4° C. Untreated animals received water twice daily.

[6] = 4-OH 50 or 100 mg/kg twice daily
[7] = obese wistar rats (28 days HFHS before treatment)

SMILES: C[C@@H]([C@H](C)O)[C@H](N)C(=O)O [compound 14a, (2S,3R,4S)-4-Hydroxyisoleucine]
- insulinotropic and insulin sensitizing activities ([1]; Broca et al. 1999, 2000, 2004, WO 97/32577, WO 01/15689): insulinotropic and insulin sensitizing activities
- antidyslipidemic activities ([1]; Narender et al. 2006): antidyslipidemic activities
- weight gain induced by Rosiglitazone ([2]; 4-OH 50 mg/kg co-administered with Rosiglitazone 1.5 mg/kg): able to modulate the weight gain induced by Rosiglitazone
- food consumption (FIG. 17D) ([2]; 4-OH 50 mg/kg, Rosiglitazone 1.5 mg/kg, or the two co-administered): reduction in food consumption during the first week, but not after
- weight gain ([2]; 4-OH 100 mg/kg twice daily oral, 28 days): Moderation of weight gain
- food consumption, first week of treatment (FIG. 17B) [2, 6]: decreased
- food consumption, remainder of the treatment phase (FIG. 17B) [2, 6]: returned to pre-treatment levels
- body weight as compared to pre-treatment values (FIG. 22B, one experiment) [3]: reduced body weight of the mice as compared to pre-treatment values
- body weight gain induced by the high fat diet [3]: reduced body weight gain induced by the high fat diet
- effect on weight gain ([4]; DIO mice, 100 mg/kg twice daily oral, Day 28 to Day 84): sustained and highly significant
- tolerability of treatments ([4]; DIO mice, 25, 50 and 100 mg/kg twice daily, oral gavage, 77 days): well-tolerated
- weight gain ([4]; DIO mice, 50 and 100 mg/kg twice daily oral, first three weeks of treatment): moderation of weight gain
- food consumption ([4]; DIO mice, during the first week of treatment, paralleling the reduction in body weight gain): slight decrease in food consumption
- body weight gain and food consumption after cessation of treatment ([4]; DIO mice, first week following cessation of treatment with 100 mg/kg): increase
- epididymal and peri-renal adipose tissue [5, 7]: reduction of epididymal and pen-renal adipose tissue
- muscle, brown fat, and organ weight [5, 7]: not affected
- tolerability of treatment [5, 7]: well tolerated
- weight gain [5, 7]: Moderation of weight gain
- food consumption ([5]; obese wistar rats, 28 days, could not account for the differences in adiposity): reduction in food consumption
